According to ChEMBL document CHEMBL1201862, “PubChem BioAssay data set” (2004):
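Each compound was tested at five concentrations against cells in 96-well plates for 48 hours. GI50 = concentration required for 50% inhibition of growth.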 The source made the active and inactive calls. Cut-off read from the data, not from the text of the source: active = GI50 up to about 1.1 µM and inactive = higher.

What was measured:
Experiment in all cases: inhibition of tumour cell growth, NCI panel, 48 h
KM12 = system: KM12
ACHN = system: ACHN
NCI-H23 = system: NCI-H23
CAKI-1 = system: CAKI-1
SF-295 = system: SF-295
OVCAR-5 = system: OVCAR-5
OVCAR-3 = system: OVCAR-3
A549 = system: A549
SR = system: SR
OVCAR-4 = system: OVCAR-4
HCT-116 = system: HCT-116
SW-620 = system: SW-620
SK-OV-3 = system: SK-OV-3
SK-MEL-28 = system: SK-MEL-28
U-251 = system: U-251
CCRF-CEM = system: CCRF-CEM
DMS-114 = system: DMS-114
SK-MEL-5 = system: SK-MEL-5
SK-MEL-2 = system: SK-MEL-2
IGROV-1 = system: IGROV-1
DLD-1 = system: DLD-1
SF-539 = system: SF-539
M14 = system: M14
HOP-92 = system: HOP-92
M19-MEL = system: M19-MEL
TK-10 = system: TK-10
786-0 = system: 786-0
SF-268 = system: SF-268
SNB-78 = system: SNB-78
MOLT-4 = system: MOLT-4
XF498 = system: XF498
NCI-H226 = system: NCI-H226
HT-29 = system: HT-29
K562 = system: K562
UO-31 = system: UO-31
LOX IMVI = system: LOX IMVI
OVCAR-8 = system: OVCAR-8
NCI-H522 = system: NCI-H522
NCI-H460 = system: NCI-H460
DMS-273 = system: DMS-273
UACC-62 = system: UACC-62
RXF 393 = system: RXF 393
HOP-62 = system: HOP-62
EKVX = system: EKVX
SN12C = system: SN12C
SNB-19 = system: SNB-19
SNB-75 = system: SNB-75
COLO 205 = system: COLO 205
HL-60 = system: HL-60
UACC-257 = system: UACC-257
LXFL 529 = system: LXFL 529
KM-20L2 = system: KM-20L2
HCT-15 = system: HCT-15
Malme-3M = system: Malme-3M
A498 = system: A498
RPMI-8226 = system: RPMI-8226
HOP-18 = system: HOP-18
HCC 2998 = system: HCC 2998

With `O=c1c2cccnc2ncn1CCCN1CCCC1` the GI50 (KM12) was > 100 µM (inactive), the GI50 (ACHN) was > 100 µM (inactive) and the GI50 (NCI-H23) was > 100 µM (inactive). The GI50 (CAKI-1) was > 100 µM (inactive), the GI50 (SF-295) was > 100 µM (inactive) and the GI50 (OVCAR-5) was > 100 µM (inactive). For the same compound, the GI50 (OVCAR-3) was > 100 µM (inactive), the GI50 (A549) was > 100 µM (inactive) and the GI50 (SR) was > 100 µM (inactive). The GI50 (OVCAR-4) was > 100 µM (inactive), the GI50 (HCT-116) was > 100 µM (inactive) and the GI50 (SW-620) was > 100 µM (inactive). For the same compound, the GI50 (SK-OV-3) was > 100 µM (inactive), the GI50 (SK-MEL-28) was > 10 µM (inactive) and the GI50 (U-251) was > 100 µM (inactive). The GI50 (CCRF-CEM) was > 100 µM (inactive), the GI50 (DMS-114) was 86.1 µM (inactive) and the GI50 (SK-MEL-5) was > 100 µM (inactive). The GI50 (SK-MEL-2) was > 100 µM (inactive), the GI50 (IGROV-1) was > 100 µM (inactive) and the GI50 (DLD-1) was > 100 µM (inactive). The GI50 (SF-539) was > 100 µM (inactive), the GI50 (M14) was > 100 µM (inactive) and the GI50 (HOP-92) was > 100 µM (inactive). For the same compound, the GI50 (M19-MEL) was > 100 µM (inactive), the GI50 (TK-10) was > 100 µM (inactive) and the GI50 (786-0) was > 100 µM (inactive). The GI50 (SF-268) was > 100 µM (inactive), the GI50 (SNB-78) was > 100 µM (inactive) and the GI50 (MOLT-4) was > 100 µM (inactive). The GI50 (XF498) was > 100 µM (inactive), the GI50 (NCI-H226) was 91 µM (inactive) and the GI50 (HT-29) was > 100 µM (inactive). The GI50 (K562) was > 100 µM (inactive), the GI50 (UO-31) was > 100 µM (inactive) and the GI50 (LOX IMVI) was > 100 µM (inactive). The GI50 (OVCAR-8) was > 100 µM (inactive), the GI50 (NCI-H522) was > 100 µM (inactive) and the GI50 (NCI-H460) was > 100 µM (inactive). For the same compound, the GI50 (DMS-273) was > 100 µM (inactive), the GI50 (UACC-62) was > 100 µM (inactive) and the GI50 (RXF 393) was > 100 µM (inactive). The GI50 (HOP-62) was > 100 µM (inactive), the GI50 (EKVX) was > 100 µM (inactive) and the GI50 (SN12C) was > 100 µM (inactive). The GI50 (SNB-19) was > 100 µM (inactive), the GI50 (SNB-75) was > 100 µM (inactive) and the GI50 (COLO 205) was 97.3 µM (inactive).

In the case of `Cn1ccnc1CCc1ccc(Cl)c(Cl)c1`, the GI50 (HL-60) is reported as 69 µM (inactive), the GI50 (UACC-257) is reported as > 100 µM (inactive) and the GI50 (KM12) is reported as > 100 µM (inactive). For the same compound, the GI50 (ACHN) was > 100 µM (inactive), the GI50 (NCI-H23) was > 100 µM (inactive) and the GI50 (CAKI-1) was > 100 µM (inactive). The GI50 (LXFL 529) was > 100 µM (inactive), the GI50 (KM-20L2) was > 100 µM (inactive) and the GI50 (SF-295) was > 100 µM (inactive). For the same compound, the GI50 (OVCAR-5) was > 100 µM (inactive), the GI50 (OVCAR-3) was 74.1 µM (inactive) and the GI50 (A549) was > 100 µM (inactive). The GI50 (SR) was > 100 µM (inactive), the GI50 (OVCAR-4) was > 100 µM (inactive) and the GI50 (HCT-116) was > 100 µM (inactive). The GI50 (SW-620) was > 100 µM (inactive), the GI50 (SK-OV-3) was > 100 µM (inactive) and the GI50 (SK-MEL-28) was > 100 µM (inactive). The GI50 (U-251) was > 100 µM (inactive), the GI50 (CCRF-CEM) was > 100 µM (inactive) and the GI50 (DMS-114) was 67.5 µM (inactive). The GI50 (SK-MEL-5) was 37.5 µM (inactive), the GI50 (SK-MEL-2) was > 100 µM (inactive) and the GI50 (HCT-15) was greater than 100 µM. For the same compound, the GI50 (IGROV-1) was > 100 µM (inactive), the GI50 (DLD-1) was > 100 µM (inactive) and the GI50 (SF-539) was > 100 µM (inactive). For the same compound, the GI50 (M14) was > 100 µM (inactive), the GI50 (HOP-92) was 43.3 µM (inactive) and the GI50 (Malme-3M) was > 100 µM (inactive). For the same compound, the GI50 (M19-MEL) was > 100 µM (inactive), the GI50 (TK-10) was > 100 µM (inactive) and the GI50 (786-0) was > 100 µM (inactive). The GI50 (SF-268) was > 100 µM (inactive), the GI50 (A498) was 73.5 µM (inactive) and the GI50 (SNB-78) was > 100 µM (inactive). For the same compound, the GI50 (MOLT-4) was > 100 µM (inactive), the GI50 (NCI-H226) was > 100 µM (inactive) and the GI50 (HT-29) was 86.7 µM (inactive). For the same compound, the GI50 (RPMI-8226) was > 100 µM (inactive), the GI50 (K562) was 54.7 µM (inactive) and the GI50 (UO-31) was 50.5 µM (inactive). For the same compound, the GI50 (LOX IMVI) was > 100 µM (inactive), the GI50 (OVCAR-8) was > 100 µM (inactive) and the GI50 (HOP-18) was 47.1 µM (inactive). The GI50 (NCI-H522) was > 100 µM (inactive), the GI50 (NCI-H460) was > 100 µM (inactive) and the GI50 (DMS-273) was > 100 µM (inactive). For the same compound, the GI50 (UACC-62) was > 100 µM (inactive), the GI50 (RXF 393) was > 100 µM (inactive) and the GI50 (HOP-62) was > 100 µM (inactive). The GI50 (SN12C) was > 100 µM (inactive), the GI50 (SNB-75) was 37.3 µM (inactive) and the GI50 (COLO 205) was > 100 µM (inactive).

`CCC1(N=[N+]=[N-])C(=O)c2ccccc2N(C)C1=O` (stereo unspecified) was tested, and the GI50 (HL-60) was > 100 µM (inactive), the GI50 (UACC-257) was > 100 µM (inactive) and the GI50 (KM12) was > 100 µM (inactive). For the same compound, the GI50 (ACHN) was > 100 µM (inactive), the GI50 (NCI-H23) was > 100 µM (inactive) and the GI50 (CAKI-1) was > 100 µM (inactive). The GI50 (LXFL 529) was > 100 µM (inactive), the GI50 (KM-20L2) was > 100 µM (inactive) and the GI50 (SF-295) was > 100 µM (inactive). The GI50 (OVCAR-5) was > 100 µM (inactive), the GI50 (OVCAR-3) was > 100 µM (inactive) and the GI50 (A549) was > 100 µM (inactive). For the same compound, the GI50 (HCC 2998) was > 100 µM (inactive), the GI50 (SR) was > 100 µM (inactive) and the GI50 (OVCAR-4) was > 100 µM (inactive). The GI50 (HCT-116) was > 100 µM (inactive), the GI50 (SW-620) was > 100 µM (inactive) and the GI50 (SK-OV-3) was > 100 µM (inactive). The GI50 (SK-MEL-28) was > 100 µM (inactive), the GI50 (U-251) was > 100 µM (inactive) and the GI50 (CCRF-CEM) was > 100 µM (inactive). The GI50 (DMS-114) was > 100 µM (inactive), the GI50 (SK-MEL-5) was > 100 µM (inactive) and the GI50 (SK-MEL-2) was > 100 µM (inactive). For the same compound, the GI50 (HCT-15) was greater than 100 µM, the GI50 (IGROV-1) was > 100 µM (inactive) and the GI50 (DLD-1) was > 100 µM (inactive). For the same compound, the GI50 (SF-539) was > 100 µM (inactive), the GI50 (M14) was > 100 µM (inactive) and the GI50 (HOP-92) was > 100 µM (inactive). For the same compound, the GI50 (Malme-3M) was > 100 µM (inactive), the GI50 (M19-MEL) was > 100 µM (inactive) and the GI50 (TK-10) was > 100 µM (inactive). For the same compound, the GI50 (786-0) was > 100 µM (inactive), the GI50 (SF-268) was > 100 µM (inactive) and the GI50 (A498) was > 100 µM (inactive). The GI50 (SNB-78) was > 100 µM (inactive), the GI50 (MOLT-4) was > 100 µM (inactive) and the GI50 (HT-29) was > 100 µM (inactive). For the same compound, the GI50 (K562) was > 100 µM (inactive), the GI50 (UO-31) was > 100 µM (inactive) and the GI50 (LOX IMVI) was > 100 µM (inactive). The GI50 (OVCAR-8) was > 100 µM (inactive), the GI50 (HOP-18) was 82.2 µM (inactive) and the GI50 (NCI-H522) was > 100 µM (inactive). For the same compound, the GI50 (NCI-H460) was > 100 µM (inactive), the GI50 (DMS-273) was > 100 µM (inactive) and the GI50 (UACC-62) was > 100 µM (inactive). The GI50 (HOP-62) was > 100 µM (inactive), the GI50 (EKVX) was > 100 µM (inactive) and the GI50 (SN12C) was > 100 µM (inactive). The GI50 (SNB-19) was > 100 µM (inactive), the GI50 (SNB-75) was > 100 µM (inactive) and the GI50 (COLO 205) was > 100 µM (inactive).
